This note sets out measurements from ChEMBL document CHEMBL1146701, “Discovery of a novel bicycloproline P2 bearing peptidyl alpha-ketoamide LY514962 as HCV protease inhibitor” (Bioorg Med Chem Lett, 2004).

Usually inhibition stands for the change of the read-out against control, counted positive when it falls. The Cmax is the highest concentration seen after dosing.

Molecules are shown by their SMILES.

Data set [1] deals with Hepatitis C virus NS3 protease. The experiment in a line: Inhibitory activity against Protease using replicon assay […] at 25 uM concentration. The note with it: Rattus norvegicus. Background: In antiviral work, replicon cells carry a viral genome segment that copies itself.
The species entered for data set [2] is Rattus norvegicus. In words: Inhibitory activity against Protease using replicon assay […] at 25 uM concentration.
A short description of data set [3]: In vivo maximum concentration in rat plasma exposure after oral administration 50 mg/kg. It is filed as ADME, organism-based. The arrangement: dose 50 mg/kg, route oral.
Data set [4] has as its target Prothrombin (Homo sapiens) (UniProt P00734). The experiment in a line: Inhibitory activity against thrombin. The note with it: concentration not given here.
The nature of data set [5]: In vivo concentration in rat plasma exposure at 8 hour after oral administration 50 mg/kg. Format: ADME, organism-based. Particulars: read-out: C. The arrangement: dose 50 mg/kg, route oral.
Data set [6] addresses Serine protease 1 (Homo sapiens) (UniProt P07477). In words: Inhibitory activity against trypsin. Particulars: concentration not given here.
The target in data set [7] is Kallikrein-1 (Homo sapiens) (UniProt P06870). The experiment in a line: Inhibitory activity against kallikrein. Particulars: concentration not given here.
In data set [8] the test system is Rattus norvegicus. In words: In vivo concentration in rat liver exposure 0-8 hour after oral administration 50 mg/kg. It is filed as ADME, organism-based. The arrangement: dose 50 mg/kg, route oral.
A short description of data set [9]: In vivo concentration in rat liver exposure 8 hour after oral administration 50 mg/kg. Format: ADME, organism-based. The arrangement: dose 50 mg/kg, route oral. Particulars: read-out: C.
Data set [10] deals with Rattus norvegicus. The experiment in a line: In vivo area under curve in rat plasma exposure after oral administration 50 mg/kg. Format: ADME, organism-based. Details: dose 50 mg/kg, route oral.
The target in data set [11] is Plasminogen (Rattus norvegicus) (UniProt Q01177). In words: Inhibitory activity against plasmin. The note with it: concentration not given here.
For a further data set, the system named is Huh-7 (Homo sapiens). In words: Cytotoxic activity against human hepatoma Huh-7 cells at 100 uM concentration.
Data set [12] has as its system Hepatitis C virus NS3 protease. The experiment in a line: Cytotoxic activity against Protease in […] Huh-7 cells at 100 uM.

Sequence of Plasminogen (Rattus norvegicus) (Q01177 97-581 limits assumed): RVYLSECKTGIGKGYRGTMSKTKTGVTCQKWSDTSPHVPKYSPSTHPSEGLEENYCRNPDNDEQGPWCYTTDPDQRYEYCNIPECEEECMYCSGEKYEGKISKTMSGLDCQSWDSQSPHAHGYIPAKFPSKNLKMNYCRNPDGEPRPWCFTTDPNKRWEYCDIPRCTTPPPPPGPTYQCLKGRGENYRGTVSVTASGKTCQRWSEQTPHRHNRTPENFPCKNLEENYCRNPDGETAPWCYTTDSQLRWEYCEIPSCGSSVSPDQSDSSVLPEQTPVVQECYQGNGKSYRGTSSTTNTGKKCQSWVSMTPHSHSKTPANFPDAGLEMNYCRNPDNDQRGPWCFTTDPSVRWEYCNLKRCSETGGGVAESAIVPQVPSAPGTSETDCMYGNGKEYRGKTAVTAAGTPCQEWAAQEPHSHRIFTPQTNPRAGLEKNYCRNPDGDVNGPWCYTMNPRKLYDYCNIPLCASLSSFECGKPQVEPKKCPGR
Sequence of Plasminogen (Rattus norvegicus) (Q01177 582-812 limits assumed): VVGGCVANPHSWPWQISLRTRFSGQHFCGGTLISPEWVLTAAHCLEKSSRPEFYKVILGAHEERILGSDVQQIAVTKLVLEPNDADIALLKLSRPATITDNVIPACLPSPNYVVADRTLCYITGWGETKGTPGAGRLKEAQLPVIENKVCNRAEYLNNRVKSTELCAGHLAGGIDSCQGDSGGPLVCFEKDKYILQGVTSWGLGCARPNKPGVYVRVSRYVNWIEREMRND
Sequence of Kallikrein-1 (Homo sapiens) (P06870 25-262 limits assumed): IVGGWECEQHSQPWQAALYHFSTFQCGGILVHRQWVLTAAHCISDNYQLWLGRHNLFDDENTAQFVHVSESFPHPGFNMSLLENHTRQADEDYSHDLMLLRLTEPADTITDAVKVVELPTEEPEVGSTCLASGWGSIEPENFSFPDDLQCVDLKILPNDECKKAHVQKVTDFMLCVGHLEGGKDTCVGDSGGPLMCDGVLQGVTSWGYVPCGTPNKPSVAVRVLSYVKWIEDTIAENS
Sequence of Serine protease 1 (Homo sapiens) (P07477 whole entry): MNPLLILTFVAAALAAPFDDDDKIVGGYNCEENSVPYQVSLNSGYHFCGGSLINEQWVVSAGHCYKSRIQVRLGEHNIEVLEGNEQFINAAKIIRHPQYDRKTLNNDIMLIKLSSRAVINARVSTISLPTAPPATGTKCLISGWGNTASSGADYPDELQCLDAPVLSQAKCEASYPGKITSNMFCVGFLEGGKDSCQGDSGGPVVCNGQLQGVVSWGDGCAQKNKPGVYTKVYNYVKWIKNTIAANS

As to `CCCC(NC(=O)[C@@H]1[C@H]2CC=C[C@H]2CN1C(=O)[C@@H](NC(=O)[C@@H](NC(=O)c1cnccn1)C(C)C)C(C)C)C(=O)C(=O)N[C@@H](C)CC` (stereo not given in full), the inhibition in data set [1] amounted to 91%.

As for `CCCC(NC(=O)[C@@H]1[C@H]2CC[C@H](F)[C@H]2CN1C(=O)[C@@H](NC(=O)[C@@H](NC(=O)c1cnccn1)C(C)C)C(C)C)C(=O)C(=O)N[C@@H](Cc1ccccc1)C(=O)O` (stereo not given in full), the inhibition in data set [1] was -8%.

Take `CCCC(NC(=O)[C@@H]1[C@H]2CC[C@H](F)[C@H]2CN1C(=O)[C@@H](NC(=O)[C@@H](NC(=O)c1cnccn1)C(C)C)C(C)C)C(=O)C(=O)NC1CC1` (stereo not given in full): the inhibition in data set [1] was found to be 84%.

On to `CCCC(NC(=O)[C@@H]1[C@H]2CC[C@@H](OCOC)C2CN1C(=O)[C@@H](NC(=O)[C@@H](NC(=O)c1cnccn1)C(C)C)C(C)C)C(=O)C(=O)N[C@@H](C)c1ccccc1` (stereo not given in full), for which, in data set [1], the inhibition came out at 98%.

For the molecule `CCCC(NC(=O)[C@@H]1[C@H]2CCC[C@H]2CN1C(=O)[C@@H](NC(=O)[C@@H](NC(=O)c1cnccn1)C(C)C)C(C)C)C(=O)C(=O)NC1CC1` (stereo not given in full), the inhibition is 93% in the data set filed under Rattus norvegicus [2]; 12% in [4]; 0% in data set [6]; 0% in data set [7]; 5% in data set [11]. Besides, the peak concentration (Cmax) in data set [3] turned out to be 2250 ng/mL. Besides, the concentration at 8 h in [5] came to 10 ng/mL; in [9], 500 nM. For the same molecule, the Caverage in the data set with Rattus norvegicus [8] was determined as 6290 nM. Also, the AUC in the data set with Rattus norvegicus [10] was found to be 2.86 µg/h/mL.

Regarding `CCCC(NC(=O)[C@@H]1[C@H]2CC=C[C@H]2CN1C(=O)[C@@H](NC(=O)[C@@H](NC(=O)c1cnccn1)C(C)C)C(C)C)C(=O)C(=O)N[C@@H](C)c1ccccc1` (stereo not given in full), the inhibition with Huh-7 (Homo sapiens) stood at 33%; in data set [1], 97%.

Turning to `CCCC(NC(=O)[C@@H]1[C@H]2CCC[C@H]2CN1C(=O)[C@@H](NC(=O)[C@@H](NC(=O)c1cnccn1)C(C)C)C(C)C)C(=O)C(=O)N[C@@H](C)c1ccccc1` (stereo not given in full), the inhibition in the data set listed under Rattus norvegicus [2] was 97%.

Consider `CCCC(NC(=O)[C@@H]1[C@H]2CCC(F)(F)[C@H]2CN1C(=O)[C@@H](NC(=O)[C@@H](NC(=O)c1cnccn1)C(C)C)C(C)C)C(=O)C(=O)NC1CC1` (stereo not given in full), for which, in data set [1], the inhibition was 64%.

As to `CCCC(NC(=O)[C@@H]1[C@H]2CC[C@H](F)[C@H]2CN1C(=O)[C@@H](NC(=O)[C@@H](NC(=O)c1cnccn1)C(C)C)C(C)C)C(=O)C(=O)N[C@@H](C)c1ccccc1` (stereo not given in full), the inhibition in data set [12] was found to be 33%; in [1], 97%.
